Consider three compounds from article PMC10272563, “Novel gold(III)-dithiocarbamate complex targeting bacterial thioredoxin reductase: antimicrobial activity, synergy, toxicity, and mechanistic insights” (Frontiers in Microbiology, 2023).

Assay [1] deals with T1, E. coli TrxR (thioredoxin reductase) (Escherichia coli, UniProt P0A9P4). Also noted: gene trxB.
The target of assay [2] is T1, E. coli TrxR (thioredoxin reductase). The assay can be described thus: Trx-coupled DTNB reduction assay, purified recombinant enzyme; activity recovered after desalting. Format: biochemical. Details: gene trxB; GenBank PSY25180.1, residues 1–321, His6-SUMO tag removed.

Where two headings read alike, the source gives them in different places.

T1 sequence (P0A9P4 whole entry, the tested form may be a part): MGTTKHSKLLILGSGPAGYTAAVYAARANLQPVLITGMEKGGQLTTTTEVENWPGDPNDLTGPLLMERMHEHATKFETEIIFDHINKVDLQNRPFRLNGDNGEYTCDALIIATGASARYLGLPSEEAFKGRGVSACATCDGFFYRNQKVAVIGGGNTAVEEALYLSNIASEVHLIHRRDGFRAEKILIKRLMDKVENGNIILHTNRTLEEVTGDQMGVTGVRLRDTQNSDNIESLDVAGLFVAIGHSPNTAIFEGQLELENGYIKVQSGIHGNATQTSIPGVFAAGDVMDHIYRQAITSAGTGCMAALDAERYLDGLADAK
T1 sequence (P0AA25 whole entry, further chain, the tested form may be a part): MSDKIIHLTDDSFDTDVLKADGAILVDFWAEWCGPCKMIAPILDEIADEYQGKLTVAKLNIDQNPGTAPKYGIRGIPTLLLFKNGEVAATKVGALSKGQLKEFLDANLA

As for `CC[P](CC)(CC)=[Au][S][C@@H]1O[C@H](COC(C)=O)[C@@H](OC(C)=O)[C@H](OC(C)=O)[C@H]1OC(C)=O` [auranofin], the IC50 (in general, the concentration that inhibits the measured activity by half) in assay [1] was 1110 nM.

Consider [Au(dppta)(mrdtc)][PF6] [compound 2], for which the half-inhibitory concentration (IC50) in assay [2] was 1920 nM.

Consider [Au(dppta)Cl2] [compound 1], for which, in assay [2], the IC50 came to 1330 nM.
